This is an account of results in patent EP4768477A1 (Yichang Humanwell Pharmaceutical Co., Ltd., priority 2024, dated 2025).

Data set [1] concerns gastrointestinal peristalsis. Briefly: Effect on gastrointestinal peristalsis (charcoal propulsion). Particulars: 3 mg/kg, single subcutaneous injection, SD rats.
The test system of data set [2] is formalin-induced inflammatory pain model. Also on record: species or system SD rats. Particulars: rat, in vivo.
The target of another data set is T1, hKOR (Homo sapiens, UniProt P41145).
T1 construct: expressed in transfected cells; host or cells: Human embryonic kidney cells 293 (293-KOR)
T1 sequence (P41145 whole entry): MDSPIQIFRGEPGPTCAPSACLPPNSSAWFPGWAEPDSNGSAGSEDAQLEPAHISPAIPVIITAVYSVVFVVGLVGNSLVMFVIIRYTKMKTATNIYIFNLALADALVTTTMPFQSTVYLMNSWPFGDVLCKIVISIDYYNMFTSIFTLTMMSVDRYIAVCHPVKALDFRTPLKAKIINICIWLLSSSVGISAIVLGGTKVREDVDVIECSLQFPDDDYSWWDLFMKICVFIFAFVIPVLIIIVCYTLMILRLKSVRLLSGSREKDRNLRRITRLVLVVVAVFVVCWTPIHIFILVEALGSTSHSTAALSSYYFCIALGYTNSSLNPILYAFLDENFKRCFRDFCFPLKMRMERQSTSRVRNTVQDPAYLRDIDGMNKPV
As to the kind of experiment: Agonistic function, cAMP method, 293-KOR cells. It is filed as cell-based. Particulars: forskolin. On the procedure:
• a. […] Prepare 8 × drug-containing solution with buffe. • c. […] Incubate for 1 h at room temperature. • j.

Where no end group is shown, it is not given here.

By EC50 is commonly meant the concentration giving half of the maximal effect. Read a high EC50 as a need for much substance. For orientation: Emax means the maximal effect, on the per cent scale that the assay sets.

Consider `CN1CC[C@]23c4c5ccc(O)c4O[C@H]2[C@@H](O)C=C[C@H]3[C@H]1C5` [Morphine], for which the “effect on the gastrointestinal peristalsis in rats (charcoal propulsion rate)” value in data set [1] is “significant inhibitory effect”. The same molecule gave an MPE% in data set [2] of 75.9±28.9 %.
On hKOR, YGGFLRRIRP [Dynorphin A1-10] came in with an EC50 of 650 pM and an Emax of 102%.
